Reference: patent publication US11339171B2, “MDM2 inhibitors” (Gan & Lee Pharmaceuticals, priority 2017, dated 2022)
Where “and” joins values, the source holds several entries; their conditions need not be identical. Equal values may be shown once. Read-outs that look alike come from different tables or passages of the source.

Experiments:
[1] = biological target: T1, MDM2 (Homo sapiens, UniProt Q00987); test: Inhibition test of MDM2-P53 (GST-MDM2, Biotin-P53, Anti-GST-Tb, SA-XL665); type: binding
T1 construct: made in house
Outline: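 Compounds, serially diluted 5-fold (twelve concentrations), were shaken for 90 min at 25° C with a mix of GST-MDM2 (4 nM final), Biotin-P53, anti-GST-Tb and SA-XL665. Buffer: 1×PBS, 0.1% BSA, 5 mM DTT, 1 mM AEBSF; signal read on a microplate reader.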

[2] = Pharmacokinetics in ICR mice after intravenous and intragastric administration; type: in vivo; conditions: for MRT last: read-out: MRT(0-t); for MRT inf: read-out: MRT(0-∞); for Vd: read-out: Vz; for half-life: read-out: t1/2 (converted)
Outline: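 Fasted male ICR mice, n=3/route; 2 mg/kg i.v., 5 mg/kg p.o. (gavage); vehicle 5% DMSO + 40% PEG400 + 55% of 10% HP-β-CD in saline. Plasma by LC-MS/MS, range 1-2000 ng/ml. AUC, t1/2, MRT, Cmax, Tmax, F, Vz, CL derived.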

[3] = test system: human osteosarcoma cell line SJSA-1; test: Inhibition of proliferation of human osteosarcoma cell line SJSA-1 (DAPI staining, In Cell Analyzer); conditions: Homo sapiens, SJSA-1, 72 h, read-out: IC50 (nM), inhibitory activity on proliferation of human osteosarcoma cell line SJSA-1, SJSA-1, incubated 72 h
[4] = IV 2 mg/kg, ICR mice, individual animal, 2 mg/kg
[5] = PO 5 mg/kg, ICR mice, individual animal, 5 mg/kg
[6] = male, ICR, mouse, plasma, iv, 2 mg/kg, IV 2 mg/kg, ICR mice, Mean
[7] = male, ICR, mouse, plasma, iv, 2 mg/kg, IV 2 mg/kg, ICR mice, individual animal
[8] = male, ICR, mouse, plasma, po, 5 mg/kg, PO 5 mg/kg, ICR mice, Mean
[9] = male, ICR, mouse, plasma, po, 5 mg/kg, PO 5 mg/kg, ICR mice, individual animal

T1 sequence (Q00987 whole entry): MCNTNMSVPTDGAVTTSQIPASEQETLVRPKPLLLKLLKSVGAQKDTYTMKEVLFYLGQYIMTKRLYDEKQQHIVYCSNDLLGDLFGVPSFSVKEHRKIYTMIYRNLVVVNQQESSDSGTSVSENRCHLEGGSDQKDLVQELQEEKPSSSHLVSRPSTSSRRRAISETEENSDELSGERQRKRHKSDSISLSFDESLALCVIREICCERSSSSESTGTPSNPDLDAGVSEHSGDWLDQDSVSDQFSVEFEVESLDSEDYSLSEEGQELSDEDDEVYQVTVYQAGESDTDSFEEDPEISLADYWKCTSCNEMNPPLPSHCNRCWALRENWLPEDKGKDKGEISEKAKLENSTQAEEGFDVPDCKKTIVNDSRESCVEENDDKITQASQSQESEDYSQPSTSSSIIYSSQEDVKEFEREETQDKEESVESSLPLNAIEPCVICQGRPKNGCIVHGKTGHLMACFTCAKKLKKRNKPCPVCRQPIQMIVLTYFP

## COc1cc(N(C)C)ccc1-c1nc2c(n1C(C)C)[C@@]1(C(=O)Nc3cc(Cl)ccc31)N(c1cc(Cl)ccc1C)C2=O [Example S-23, (S)-6-chloro-5′-(5-chloro-2-methylphenyl)-2′-(4-(dimethylamino)-2-methoxyphenyl)-3′-isopropyl-3′H-spiro[dihydroindole-3,4′-pyrrolo[3,4-d]imidazole]-2,6′(5′H)-dione]
[1]
  IC50: 2.8 nM
[2]; [4]
  AUC(0-t): 6172.76 ng·h/mL and 6625.30 ng·h/mL
  AUC(0-∞): 6427.71 ng·h/mL and 7084.65 ng·h/mL
  CL: 5.19 mL/min/kg and 4.71 mL/min/kg
  Cmax: 3040.32 ng/mL and 3640.21 ng/mL
  MRT(0-t): 1.50 h and 1.55 h
  MRT(0-∞): 1.75 h and 1.99 h
  Vz: 0.60 L/kg and 0.64 L/kg
  t1/2: 1.33 h and 1.57 h
[2]; PO 5 mg/kg vs IV 2 mg/kg, ICR mice
  F*: 43.18%
[2]; [5]
  AUC(0-t): 9122.66 ng·h/mL and 7675.41 ng·h/mL
  AUC(0-∞): 9163.57 ng·h/mL and 7881.03 ng·h/mL
  Cmax: 3316.65 ng/mL and 2730.39 ng/mL
  MRT(0-t): 2.02 h and 2.08 h
  MRT(0-∞): 2.05 h and 2.29 h
  Tmax: 30 min
  t1/2: 0.98 h and 1.52 h
[2]; [6]
  AUC(0-inf): 8010 ng·h/mL
  clearance: 4.35 mL/min/kg
  MRT last: 1.61 h
  MRT inf: 2.07 h
  Vd: 0.58 L/kg
  half-life: 95.4 min
[2]; male, ICR, mouse, plasma, iv, 2 mg/kg, IV 2 mg/kg, ICR mice, Mean, read-out: AUC(0-t)
  AUC(0-t): 7420 ng·h/mL
[2]; male, ICR, mouse, plasma, iv, 2 mg/kg, IV 2 mg/kg, ICR mice, Mean, read-out: Cmax
  Cmax: 3490 ng/mL
[2]; male, ICR, mouse, plasma, iv, 2 mg/kg, IV 2 mg/kg, ICR mice, Mean, read-out: Tmax
  Tmax: 4.98 min
[2]; [7]
  AUC(0-inf): 10500 ng·h/mL
  clearance: 3.17 mL/min/kg
  MRT last: 1.78 h
  MRT inf: 2.46 h
  Vd: 0.51 L/kg
  half-life: 112 min
[2]; male, ICR, mouse, plasma, iv, 2 mg/kg, IV 2 mg/kg, ICR mice, individual animal, read-out: AUC(0-t)
  AUC(0-t): 9460 ng·h/mL
[2]; male, ICR, mouse, plasma, iv, 2 mg/kg, IV 2 mg/kg, ICR mice, individual animal, read-out: Cmax
  Cmax: 3780 ng/mL
[2]; male, ICR, mouse, plasma, iv, 2 mg/kg, IV 2 mg/kg, ICR mice, individual animal, read-out: Tmax
  Tmax: 4.8 min
[2]; [8]
  AUC(0-inf): 8120 ng·h/mL
  MRT last: 2.15 h
  MRT inf: 2.26 h
  half-life: 73.2 min
[2]; male, ICR, mouse, plasma, po, 5 mg/kg, PO 5 mg/kg, ICR mice, Mean, read-out: AUC(0-t)
  AUC(0-t): 8010 ng·h/mL
[2]; male, ICR, mouse, plasma, po, 5 mg/kg, PO 5 mg/kg, ICR mice, Mean, read-out: Cmax
  Cmax: 2700 ng/mL
[2]; male, ICR, mouse, plasma, po, 5 mg/kg, PO 5 mg/kg, ICR mice, Mean, read-out: Tmax
  Tmax: 49.8 min
[2]; [9]
  AUC(0-inf): 7320 ng·h/mL
  MRT last: 2.35 h
  MRT inf: 2.43 h
  half-life: 69 min
[2]; male, ICR, mouse, plasma, po, 5 mg/kg, PO 5 mg/kg, ICR mice, individual animal, read-out: AUC(0-t)
  AUC(0-t): 7240 ng·h/mL
[2]; male, ICR, mouse, plasma, po, 5 mg/kg, PO 5 mg/kg, ICR mice, individual animal, read-out: Cmax
  Cmax: 2050 ng/mL
[2]; male, ICR, mouse, plasma, po, 5 mg/kg, PO 5 mg/kg, ICR mice, individual animal, read-out: Tmax
  Tmax: 60 min
[2]; male, ICR, mouse, plasma, po, 5 mg/kg, oral intragastric administration 5 mg/kg, read-out: AUC0-t
  AUC(0-t): 8010 ng·h/mL
[3]
  IC50: 1.24 nM
